This test deals with T1, human PRMT1 (Homo sapiens, UniProt Q99873).
T1 construct: GST-tagged PRMT1; made in house; host or cells: High Five insect cells (baculovirus, pFastBacI)
In words: PRMT1 biochemical assay (3H-SAM Flashplate, peptide substrate). As to conditions: read-out: PRMT1_ IC50. In short, it runs like this: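 FLAG-tagged full-length human PRMT1 (0.5 nM, GST-tagged, insect-cell expressed) preincubated 30 min at RT with compound, then biotinylated histone H4 36-50 peptide (20 nM) plus 200 nM 3H-SAM and 1.5 uM SAM in Bicine pH 7.6, 2% DMSO. 3H-methylated peptide captured on streptavidin Flashplate; IC50 from 3/4-parameter fit.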

The structures appear in SMILES notation.

A word on the IC50: it is the point on the concentration scale where inhibition reaches its midpoint.

T1 sequence (Q99873 with tags, fused parts or gaps): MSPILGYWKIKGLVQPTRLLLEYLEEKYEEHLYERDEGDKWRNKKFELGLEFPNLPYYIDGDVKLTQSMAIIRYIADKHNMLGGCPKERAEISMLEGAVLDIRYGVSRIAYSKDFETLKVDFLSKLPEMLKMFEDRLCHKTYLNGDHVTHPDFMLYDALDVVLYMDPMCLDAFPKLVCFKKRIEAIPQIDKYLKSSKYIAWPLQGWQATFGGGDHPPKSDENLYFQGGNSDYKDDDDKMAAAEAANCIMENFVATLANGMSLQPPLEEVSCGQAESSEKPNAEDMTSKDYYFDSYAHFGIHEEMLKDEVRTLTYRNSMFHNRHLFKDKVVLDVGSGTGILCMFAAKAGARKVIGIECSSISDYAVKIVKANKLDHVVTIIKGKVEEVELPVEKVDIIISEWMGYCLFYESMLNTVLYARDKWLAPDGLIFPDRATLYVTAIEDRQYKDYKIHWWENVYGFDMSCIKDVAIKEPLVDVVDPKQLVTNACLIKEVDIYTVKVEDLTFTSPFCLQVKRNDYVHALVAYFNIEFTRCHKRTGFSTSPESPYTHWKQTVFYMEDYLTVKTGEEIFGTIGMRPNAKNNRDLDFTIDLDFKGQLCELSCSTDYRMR

Turning to `CNCCN(C)Cc1cccc(-c2cc(C(=O)N3CCc4ccccc4C3)c3cnn(C(C)C)c3n2)c1` [Compound 42], the IC50 worked out at 185 nM.

With `CNCCN(C)Cc1cccc(-c2cc(N)c3cnn(C(C)C)c3n2)c1` [Compound 151], the IC50 came to 1660 nM.

Regarding `CNCCN(C)Cc1cccc(-c2cc(NS(=O)(=O)C(F)(F)F)c3cnn(C(C)C)c3n2)c1` [Compound 164], the IC50 stood at 4500 nM.

For `CN(CCN)Cc1ccc(-c2ccc3ncn(-c4ccccc4)c3c2)cc1` [Compound 19], the IC50 came to 82.3 nM.

`CNCCN(C)Cc1cccc(-c2cc(C(=O)NCc3cnn(C)c3C)c3cnn(C(C)C)c3n2)c1` [Compound 137]: the IC50 amounted to 985 nM.

As to `N#Cc1cccc(Cn2cnc3ccc(-c4ccc(CNCCN)cc4)cc32)c1` [Compound 145], the IC50 was found to be 1270 nM.

On to `CC(C)n1ncc2c(C(=O)NCC3CCN(C)CC3)cc(-c3cccc(CN(C)CCN(C)C)c3)nc21` [Compound 162], for which the IC50 was found to be 4320 nM.

As to `CNCCN(C)Cc1cccc(-c2cc(Oc3ccccc3)c3cnn(C(C)C)c3n2)c1` [Compound 45], the concentration for half-maximal inhibition (IC50) is 194 nM.

Take `CN(CCN)Cc1cccc(-c2nc(NCc3nccs3)c3cnn(C4CC4)c3n2)c1` [Compound 1]: the IC50 turned out to be 19.3 nM.

With `CNCCN(C)Cc1cccc(-c2cc(C(=O)NCc3ccccc3F)c3cnn(C(C)C)c3n2)c1` [Compound 38], the IC50 is 159 nM.

For `CNCCN(C)Cc1cccc(-c2cc(C(=O)N[C@@H](C)c3ccccc3)c3cnn(C(C)C)c3n2)c1` [Compound 44], the IC50 stood at 189 nM.

`CCS(=O)(=O)Nc1cc(-c2cccc(CN(C)CCNC)c2)nc2c1cnn2C(C)C` [Compound 161]: the IC50 is 4170 nM.

As for `CNCCN(C)Cc1cccc(-c2cc(NS(C)(=O)=O)c3cnn(C(C)C)c3n2)c1` [Compound 169], the IC50 was found to be 10000 nM.

On to `CC(C)n1ncc2c(C(=O)NCC3CCOCC3)cc(-c3cccc(CN(C)CCNC4CC4)c3)nc21` [Compound 167], for which the IC50 was determined as 5890 nM.

For `CC(C)n1ncc2c(C(=O)N[C@@H](C)c3ccccc3)cc(-c3cccc(CN(C)CCN)c3)cc21` [Compound 10], the concentration for half-maximal inhibition (IC50) stood at 48.5 nM.

As to `CCn1ncc2c(C(=O)N[C@@H](C)c3ccccc3)cc(-c3cccc(CN(C)CCNC)c3)nc21` [Compound 33], the IC50 amounted to 140 nM.

With `CN(CCN)Cc1cccc(-c2cc(C(=O)NC3CCOCC3)c3cnn(C4CC4)c3n2)c1` [Compound 142], the IC50 worked out at 1110 nM.

With `CC(C)n1ncc2c(N3CCOCC3)cc(-c3cccc(CN(C)CCNC4CC4)c3)nc21` [Compound 163], the IC50 turned out to be 4410 nM.

`CC(C)n1ncc2c(C(=O)N(C)Cc3ccccc3)cc(-c3cccc(CN(C)CCN)c3)nc21` [Compound 31]: the IC50 is 128 nM.

As to `CNCCN(C)Cc1cccc(-c2cc(NC3CC3)c3cnn(C(C)C)c3n2)c1` [Compound 11], the IC50 worked out at 51.6 nM.

On to `CNCCN(C)Cc1cccc(-c2cc(C(=O)NCC3CCOCC3)c3cnn(C4CC4)c3n2)c1` [Compound 26], for which the IC50 worked out at 106 nM.

Consider `CC(C)n1cnc2ccc(-c3ccc(CNCCN)cc3)cc21` [Compound 166], for which the half-inhibitory concentration (IC50) is 5090 nM.

Turning to `CC(C)n1ncc2c(C(=O)NCc3ccncc3)cc(-c3cccc(CNCCN)c3)nc21` [Compound 150], the IC50 turned out to be 1600 nM.

For the molecule `CC(C)n1ncc2c(C(=O)N3CCCCC3)cc(-c3cccc(CN(C)CCN)c3)nc21` [Compound 43], the IC50 came out at 188 nM.

Consider `NCCNCc1ccc(-c2cnc3c(c2)OCC(=O)N3)cc1` [Compound 358], for which the IC50 stood at 78.5 nM.

Turning to `CNCCN(C)Cc1cccc(-c2cc(NS(C)(=O)=O)c3cnn(C(C)C)c3n2)c1` [Compound 170], the IC50 is 10000 nM.

As to `CNCCN(C)Cc1cccc(-c2cc(C(=O)NCC3CCOCC3)c3cnn(C4CCC4)c3n2)c1` [Compound 21], the 50% inhibitory concentration (IC50) turned out to be 89 nM.

For the molecule `CC(C)n1ncc2c(C(=O)N[C@@H](C)c3ccccc3)cc(-c3cccc(CNCCN)c3)nc21` [Compound 160], the IC50 is 4100 nM.

In the case of `CNCCN(C)Cc1cccc(-c2cc(C(=O)NCc3c(F)cccc3F)c3cnn(C(C)C)c3n2)c1` [Compound 47], the IC50 worked out at 209 nM.

Take `CN(CCN)Cc1cccc(-c2cc(C(=O)NC3CCOCC3)c3cnn(CC(F)(F)F)c3n2)c1` [Compound 144]: the IC50 turned out to be 1200 nM.

Take `CNCCN(C)Cc1cccc(-c2cc(OCC(F)(F)F)c3cnn(C(C)C)c3n2)c1` [Compound 154]: the IC50 is 2290 nM.

`CNCCN(C)Cc1cccc(-c2cc(NC(=O)NC)c3cnn(C(C)C)c3n2)c1` [Compound 138]: the IC50 was 1040 nM.

In the case of `Cc1nn(C(C)C)c2nc(-c3cccc(CN(C)CCN)c3)cc(N3CCOCC3)c12` [Compound 22, N1-(3-(1-isopropyl-3-methyl-4-morpholino-1H-pyrazolo[3,4-b]pyridin-6-yl)benzyl)-N1-methylethane-1,2-diamine], the IC50 was 95.2 nM.

For `CNCCN(C)Cc1cccc(-c2ccc3ncn(C4CCOCC4)c3c2)c1` [Compound 30], the IC50 turned out to be 118 nM.

With `CN(CCN)Cc1cccc(-c2cc(C(=O)NC3CCOCC3)c3cnn(C)c3n2)c1` [Compound 158], the IC50 amounted to 3020 nM.

With `CC(C)n1ncc2c(C(=O)NCc3ccccc3)cc(-c3cccc(CNCCN)c3)cc21` [Compound 134], the IC50 came out at 925 nM.

`Cc1cccc(CCn2cnc3ccc(-c4ccc(CNCCN)cc4)cc32)c1` [Compound 143]: the IC50 came to 1110 nM.

`NCCNCc1ccc(-c2cnc3c(c2)CCC(=O)N3)cc1` [Compound 156]: the IC50 came out at 2410 nM.

In the case of `CC(C)n1ncc2c(C(=O)NCc3ccccc3)cc(-c3cccc(CN(C)CCN)c3)cc21` [Compound 14], the IC50 is 69.2 nM.

Regarding `CNCCN(C)Cc1cccc(-c2cnc3c(c2)OCC(=O)N3)c1` [Compound 355], the IC50 was 512 nM.

On to `CNCCN(C)Cc1cccc(-c2ccc3ncn(C(C)C)c3c2)c1` [Compound 28], for which the IC50 came to 114 nM.

In the case of `CNCCN(C)Cc1cccc(-c2cc(NS(=O)(=O)N(C)C)c3cnn(C(C)C)c3n2)c1` [Compound 139], the IC50 amounted to 1050 nM.

For `CC(C)n1cc2c(N)cc(-c3cccc(CN(C)CCN)c3)nc2n1` [Compound 13], the IC50 amounted to 66.2 nM.

Take `CC(C)n1ncc2c(C(=O)N3CCc4ccccc4C3)cc(-c3cccc(CN(C)CCN)c3)nc21` [Compound 23]: the half-inhibitory concentration (IC50) was determined as 97.1 nM.

Regarding `CC(C)n1ncc2c(C(=O)NCc3ccccc3)cc(-c3cccc(CNCCN)c3)nc21` [Compound 155], the IC50 was 2300 nM.

In the case of `CC(C)n1ncc2c(C(=O)N3CCCCC3)cc(-c3cccc(CNCCN)c3)nc21` [Compound 153], the IC50 was 1710 nM.

For the molecule `CC(C)n1ncc2c(C(=O)NC3CCOCC3)cc(-c3cccc(CN(C)CCN)c3)nc21` [Compound 148], the IC50 worked out at 1480 nM.

In the case of `COc1ccc(Cn2cnc3ccc(-c4ccc(CNCCN)cc4)cc32)cc1` [Compound 132], the 50% inhibitory concentration (IC50) is 848 nM.

Turning to `CNCCN(C)Cc1cccc(-c2ccc3c(c2)ncn3C(C)C)c1` [Compound 36], the half-maximal inhibitory concentration (IC50) is 153 nM.

`CC(C)n1ncc2c(NC3CC3)cc(-c3cccc(CN(C)CCN)c3)nc21` [Compound 41]: the IC50 came to 172 nM.

Consider `COc1cccc(CNC(=O)c2cncc(-c3ccc(CNCCN)cc3)c2)c1` [Compound 356], for which the IC50 was 755 nM.

Take `CC(C)n1ncc2c(C(=O)NCc3ccc(F)cc3)cc(-c3cccc(CN(C)CCN)c3)nc21` [Compound 25]: the IC50 is 105 nM.

Regarding `CC(C)n1ncc2c(C(=O)N[C@@H](C)c3ccccc3)cc(-c3cccc(CN(C)CCN)c3)nc21` [Compound 136], the IC50 amounted to 934 nM.

Regarding `CC(C)n1ncc2c(C(=O)NCc3c(F)cccc3F)cc(-c3cccc(CN(C)CCN)c3)nc21` [Compound 37], the 50% inhibitory concentration (IC50) came out at 154 nM.

`CNCCN(C)Cc1cccc(-c2nc(NCc3cc(C)nn3C)c3cnn(C4CC4)c3n2)c1` [Compound 17]: the IC50 was 69.7 nM.

In the case of `Cc1c(C(=O)NCc2ccccc2)cc(-c2cccc(CN(C)CCN)c2)c2cn[nH]c12` [Compound 15], the concentration for half-maximal inhibition (IC50) turned out to be 69.6 nM.

Turning to `CNCCN(C)Cc1cccc(-c2ccc3cn(Cc4ccccc4)nc3n2)c1` [Compound 35], the IC50 amounted to 152 nM.

On to `COc1cccc(Cc2nc3ccc(-c4ccc(CNCCN)cc4)cc3n2C(C)C)c1` [Compound 135], for which the 50% inhibitory concentration (IC50) came out at 932 nM.

Consider `CC(C)n1cnc2cc(-c3ccc(CN(C)CCN)cc3)ccc21` [Compound 46], for which the IC50 was 196 nM.

Regarding `Cc1ccc(-n2cnc3cc(-c4ccc(CNCCN)cc4)ccc32)cc1` [Compound 131], the 50% inhibitory concentration (IC50) is 841 nM.

For `CNCCN(C)Cc1cccc(-c2cnc3c(c2)c(Br)nn3CC2CCOCC2)c1` [Compound 39], the half-inhibitory concentration (IC50) turned out to be 164 nM.

On to `Cc1cc2cc(-c3ccc(CNCCN)cc3)ccc2[nH]1` [Compound 141], for which the IC50 worked out at 1110 nM.

Turning to `CNCCN(C)Cc1cc(-c2cc(C(=O)NC3CCOCC3)c3cnn(C(C)C)c3n2)ccc1F` [Compound 130], the IC50 came to 833 nM.

For the molecule `CNCCN(C)Cc1cccc(-c2nc(NC3CCOCC3)c3cnn(C(C)(C)C)c3n2)c1` [Compound 27, N1-(3-(1-tert-butyl-4-(tetrahydro-2H-pyran-4-ylamino)-1H-pyrazolo[3,4-d]pyrimidin-6-yl)benzyl)-N1,N2-dimethylethane-1,2-diamine], the 50% inhibitory concentration (IC50) amounted to 106 nM.

On to `CCC(=O)c1cc(-c2cccc(CN(C)CCNC)c2)nc2c1cnn2C(C)C` [Compound 128], for which the IC50 came to 808 nM.

For `COc1ccc(Cn2cnc3ccc(-c4ccc(CN(C)CCN)cc4)cc32)cc1` [Compound 16], the IC50 stood at 69.6 nM.

As for `CNC(=O)Nc1cc(-c2cccc(CN(C)CCN)c2)nc2c1cnn2C(C)C` [Compound 126], the IC50 is 783 nM.

Turning to `CC(C)n1ncc2c(C(=O)NCc3ccccc3F)cc(-c3cccc(CNCCN)c3)nc21` [Compound 159], the half-maximal inhibitory concentration (IC50) came out at 3140 nM.

For the molecule `CNCCN(C)Cc1cccc(-c2ccc3c(c2)ncn3CCOC)c1` [Compound 34], the half-inhibitory concentration (IC50) stood at 145 nM.

As to `CNCCN(C)Cc1cccc(-c2cc(C(=O)N[C@@H](C)c3ccccc3)c3cn[nH]c3n2)c1` [Compound 12], the IC50 turned out to be 59.4 nM.
